Experimental data from patent US9382204B2, “Inhibitors targeting the DNA-binding domain of human STAT3 for treatment of metastatic cancers” (Indiana University Research and Technology Corporation, priority 2013, dated 2016).
pIC50: −log10 of the molar value.

What was measured:
IMR90 and MCF10A1 cells = assay: Cytotoxicity sulphorhodamine (SRB) assay, non-cancerous cells
Description: FIG. 7. […] (A) Level of STAT3 expression and activation. […] Actin was used as a loading control. (B-C) Cytotoxicity assay. […] IC50 of inS3-54 for each cell line was derived using PrismPad program. (D) Apoptosis assay.
Cytotoxicity of inS3-54 was determined using sulphorhodamine colorimetric assay as described previously (41). Photometric enzyme immunoassay using Cell Death Detection ELISA Plus kit (Roche Diagnostics, Indianapolis, Ind.) was performed for quantitative in-vitro determination of cytoplasmic histone-associated DNA fragments and apoptosis as we previously described.
Survival, apoptosis, migration, and invasion assays were performed as previously described. Briefly, effect of STAT3 inhibitors on cell survival were analyzed using sulforhodamine B (SRB) assay. Apoptosis induced by STAT3 inhibitors cells were quantified using Cell Death Detection ELISA^PLUS Kit (Roche, Mannheim, Germany) by enzyme-linked immunosorbent assay (ELISA) according to manufacturer's instructions. Wound filling assay was performed by culturing 1×10^5 cells/well in 6-well plates, followed by generating a wound using a pipet tip and continuous culture with photographic recording at different times.

[1] = system: STAT3 downstream target genes; assay: Western blot and RT-PCR of STAT3 and its downstream target genes; type: cell-based, human
Description: FIG. 10. […] Actin was used as a loading control.
FIG. 11. Effect of inS3-54 on mRNA level of STAT3 downstream target genes. MDA-MB-231 (A) and A549 (B) cells were treated with DMSO control or 20 μM inS3-54 followed by extracting total RNA and real-time PCR analysis.
Quantitative RT-PCR analysis was performed using primers shown in supplemental Table 2 as previously described.

MDA-MB-468 = assay: PARP cleavage in MDA-MB-468 cells; type: cell-based, human; conditions: 72-hour treatment, data not shown
STAT3 = assay: In-situ STAT3 binding to chromatin (subcellular fractionation, Western blot); type: cell-based, human; conditions: A549 and MDA-MB-231 cells, increasing concentration
Description: Subcellular fractionation was performed as previously described. Briefly, cells were lysed in 10 mM HEPES, pH7.9, 10 mM KCl, 1.5 mM MgCl2, 0.34 M Sucrose, 10% glycerol, 1% Triton X-100, 1 mM DTT, 10 μM leupeptin, protease inhibitor cocktail and centrifuged at 4,200 g for 5 minutes to collect supernatant as cytosolic fraction. The pellet (nuclei) was resuspended in 3 mM EDTA, 0.2 mM EGTA, 1 mM DTT, 10 μM leupeptin, protease inhibitor cocktail and incubated on ice for 30 minutes followed by centrifugation at 5,000 g for 5 minutes. The supernatant was collected as soluble nuclear fraction. The pellet was resuspended in 50 mM Tris/HCl, pH7.4, 150 mM NaCl, 0.5% […], 5 mM EDTA, 50 mM NaF, 1 mM NaVO3, 1% SDS, 1 mM DTT, 10 μM leupeptin, protease inhibitor cocktail and sonicated to release proteins from chromatins.
The in-situ DNA-binding activity of STAT3 was performed by analyzing chromatin-bound STAT3 also as previously described.

MDA-MB-231 cells [2] = assay: Matrigel invasion assay, MDA-MB-231; type: cell-based, human
Description: (§1) For wound-healing assay, 1×10^5 cells per well were plated in 6-well plates followed by introduction of a wound and monitoring the healing process of the wound over a 24-hour period. The healing of the wound was determined by measuring the remaining gap between two migrating edges at different times. […] At different times, invading cells were stained with crystal violate and counted.

MDA-MB-231 cells [3] = assay: Proliferation and apoptosis of 100% confluent MDA-MB-231 cells; type: cell-based, human
Description: (§2) FIG. 9. Effect of inS3-54 on cell growth and apoptosis of confluent cells. […] (**p<0.01; *p<0.05).
(§3) FIG. 21. Effects of inS3-54A18 on cell growth and apoptosis of confluent cells.
(§4) Although we used 100% confluent cells and short time incubation in the above assays, inS3-54 inhibition of proliferation may still contribute to the above observed outcome. To eliminate this possibility, we analyzed cell proliferation and apoptosis under the same condition as wound-healing and Matrigel invasion assays with confluent cultures. […] Thus, we conclude that inS3-54 inhibition of migration and invasion is unlikely due to its effect on apoptosis and cell proliferation.

A549 cells [4] = assay: Matrigel invasion assay, A549; type: cell-based, human
Description: as §1

A549 cells [5] = assay: Proliferation and apoptosis of 100% confluent A549 cells; type: cell-based, human
Description: as §2, §3, §4

A549 cells [6] = assay: Wound-healing migration assay, A549; type: cell-based, human; conditions: 24 hours
Description: as §1

A549 cells [7] = assay: Mouse xenograft model of A549 cells; type: in vivo, NOD/SCID mice
Description: For efficacy study. 5×10^6 A549 cells were injected subcutaneously in the flanks of 12 NOD/SCID mice. When the tumor volume reached about 50.0 mm^3, the mice were randomized into two different groups (6/group) with one treated by formulation vehicle control (Pharmatek Laboratories, San Diego, Calif.) and the other by A18 at 200 mg/kg with oral dosing every two days for four weeks. One mouse in each group died during the study and was eliminated. Tumor volume and body weight were measured twice a week. On the 35th day after implant, mice were euthanized and the tumor tissues were harvested and weighed. Necropsy was also performed to determine the changes in heart, lungs, kidneys, liver and spleen. To evaluate the histological alternation, metastasis in the lung and the expression of STAT3 and its downstream proteins, paraffin-embedded tissue sections were stained with ematoxylin and eosin (H&E) and/or used for immunohistochemistry analysis.

[8] = mouse, in vivo
[9] = A549 and MDA-MB-231 cells, Western blot
[10] = 200 mg/kg oral, every two days for four weeks

CC(=O)Nc1ccc(N2C(=O)C(=Cc3ccc(Cl)cc3)C=C2c2ccccc2)cc1 [Compound A26]
cytotoxicity to lung fibroblast (IMR90 and MCF10A1 cells): high level cytotoxicity | pIC50 (IMR90 and MCF10A1 cells; read-out: IC50, noncancerous lung fibroblast, lung fibroblast (IMR90)): 5.40

O=C(O)c1ccc(N2C(=O)/C(=C/c3ccc([N+](=O)[O-])cc3)C=C2c2ccccc2)cc1 [inS3-54, 4-[(3E)-3-[(4-nitrophenyl)-methylidene]-2-oxo-5-phenylpyrrol-1-yl]benzoic acid]
mRNA level of STAT3 downstream targets ([1]; 20 μM, MDA-MB-231 and A549 cells, real-time PCR): inhibited | expression of STAT3 downstream target genes at protein level (cyclin D1, survivin, VEGF, MMP-2, MMP-9, twist) [1, 9]: decreased | level of total STAT3 or basal level of Tyr705-phosphorylated STAT3 [1, 9]: had no effect | cleavage of PARP (MDA-MB-468): induced cleavage of PARP | STAT3 in the chromatin-bound fraction (STAT3): decreases | invasion reduced to, compared with control (MDA-MB-231 cells [2]; 10 μM, 6 hours): 52% | invasion reduced to, compared with control (MDA-MB-231 cells [2]; 20 μM, 6 hours): 24% | activity at 10 µM (MDA-MB-231 cells [2]; Homo sapiens, MDA-MB-231, 10 μM, 24 hours, read-out: invasion, % of controls): ~24% | activity at 20 µM (MDA-MB-231 cells [2]; Homo sapiens, MDA-MB-231, 20 μM, 24 hours, read-out: invasion, % of controls): 5% | proliferation and apoptosis of confluent MDA-MB-231 cells (MDA-MB-231 cells [3]; 10 μM): did not significantly decrease proliferation or increase apoptosis | apoptosis of confluent cells (MDA-MB-231 cells [3]; 20 μM, 6 hours): no apoptosis was observed | apoptosis of confluent MDA-MB-231 cells (MDA-MB-231 cells [3]; 20 μM, 24 hours): increases apoptosis | proliferation of confluent MDA-MB-231 cells (MDA-MB-231 cells [3]; 20 μM, 24 hours): decreased the proliferation | invasion reduced to, compared with control (A549 cells [4]; 10 μM, 6 hours): 67% | invasion reduced to, compared with control (A549 cells [4]; 20 μM, 6 hours): 49% | activity at 10 µM (A549 cells [4]; Homo sapiens, A549, 10 μM, 24 hours, read-out: invasion, % of controls): ~71% | activity at 20 µM (A549 cells [4]; Homo sapiens, A549, 20 μM, 24 hours, read-out: invasion, % of controls): 33% | proliferation and apoptosis of confluent A549 cells (A549 cells [5]; 20 μM, 24 hours): no significant effect | wounds healed (A549 cells [6]; 10 μM): 54% | wounds healed (A549 cells [6]; 20 μM): 27%

O=C1C(=Cc2ccc(Cl)cc2)C=C(c2ccccc2)N1c1ccc(O)cc1 [Compound A18]
expression of STAT3 downstream target genes at protein level (cyclin D1, survivin, VEGF, MMP-2, MMP-9, twist) [1, 9]: decreased | final tumor weight compared to control-treated group (A549 cells [7]; [10]): significantly less | mouse body weight (A549 cells [7]; [10]): no significant effect | weight of other organs (A549 cells [7]; [10]): no difference | xenograft tumor growth compared to vehicle control (A549 cells [7]; [10]): significantly reduced | lung metastasis (A549 cells [7]; H&E staining and histology): None of the A18-treated mice has any signs of lung metastasis | expression of survivin and VEGF in xenograft tumors (A549 cells [7]; immunohistochemistry): reduced | STAT3 in the chromatin-bound fraction (STAT3): decreases | cell invasion inhibited (MDA-MB-231 cells [2]; 5 μM, 6 hours): 51% | invasion reduced to, compared with control (MDA-MB-231 cells [2]; 10 μM, 6 hours): 13% | cytotoxicity to noncancerous cells (IMR90 and MCF10A1 cells): little cytotoxicity | apoptosis of confluent MDA-MB-231 cells (MDA-MB-231 cells [3]; 5 and 10 μM, 24 hours): did not induce any apoptosis | reduction of proliferation of confluent MDA-MB-231 cells (MDA-MB-231 cells [3]; 5 and 10 μM, 24 hours): < 20% | cell invasion inhibited (A549 cells [4]; 5 μM, 6 hours): 66% | invasion reduced to, compared with control (A549 cells [4]; 10 μM, 6 hours): 35% | proliferation and apoptosis of confluent A549 (A549 cells [5]; 5 and 10 μM, 6 or 24 hours): no significant effect | dose tolerated by mice [8]: up to 200 mg/kg | wounds healed (A549 cells [6]; 5 μM): 64% | wounds healed (A549 cells [6]; 10 μM): 47%
